# Assay results reported in patent US20230085307A1, “PYRIDAZINONE COMPOUND AND HERBICIDE” (NISSAN CHEMICAL CORPORATION, priority 2019, published 2023).
# Tests used:
# barnyard grass [1] = test: Test Example 3: herbicidal effect by foliage application, Wagner pot (Table 18, symbol H); format: in vivo, barnyard grass (Echinochloa crus-galli); settings: 320 g/ha
# In short: (§1)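 Plants were sown in alluvial soil held under 0.1–0.5 cm standing water and grown 14 days in a greenhouse at 25–30 °C. An emulsifiable formulation, water-diluted to the set dose, was then sprayed onto the foliage, and effects were scored three weeks later using previously defined criteria.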
# Chinese sprangletop = test: Test Example 3: herbicidal effect by foliage application, Wagner pot (Table 18, symbol D); format: in vivo, chinese sprangletop (Leptochloa chinensis); settings: 320 g/ha
# In short: as §1
# rice flat sedge = test: Test Example 3: herbicidal effect by foliage application, Wagner pot (Table 18, symbol E); format: in vivo, rice flat sedge (Cyperus iria); settings: 320 g/ha
# In short: as §1
# southern crabgrass [2] = test: Test Example 4: herbicidal effect by soil treatment (Table 19, symbol F); format: in vivo, southern crabgrass (Digitaria ciliaris); settings: amount of applied herbicide 320 g/ha
# In short: (§2)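 Emulsion of test compound, water-diluted to predetermined amount, sprayed on soil after sowing (seed depth ~1.5 cm, sterilized diluvial soil). Greenhouse, 25–30° C. Effect graded at three weeks post-spray.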
# green foxtail [3] = test: Test Example 4: herbicidal effect by soil treatment (Table 19, symbol G); format: in vivo, green foxtail (Setaria viridis); settings: amount of applied herbicide 320 g/ha
# In short: as §2
# barnyard grass [4] = test: Test Example 4: herbicidal effect by soil treatment (Table 19, symbol H); format: in vivo, barnyard grass (Echinochloa crus-galli); settings: amount of applied herbicide 320 g/ha
# In short: as §2
# wild oat [5] = test: Test Example 4: herbicidal effect by soil treatment (Table 19, symbol I); format: in vivo, wild oat (Avena fatua); settings: amount of applied herbicide 320 g/ha
# In short: as §2
# blackgrass [6] = test: Test Example 4: herbicidal effect by soil treatment (Table 19, symbol J); format: in vivo, blackgrass (Alopecurus myosuroides); settings: amount of applied herbicide 320 g/ha
# In short: as §2
# Italian ryegrass [7] = test: Test Example 4: herbicidal effect by soil treatment (Table 19, symbol K); format: in vivo, Italian ryegrass (Lolium multiflorum); settings: amount of applied herbicide 320 g/ha
# In short: as §2
# windgrass [8] = test: Test Example 4: herbicidal effect by soil treatment (Table 19, symbol L); format: in vivo, windgrass (Apera spica-venti); settings: amount of applied herbicide 320 g/ha
# In short: as §2
# velvetleaf [9] = test: Test Example 4: herbicidal effect by soil treatment (Table 19, symbol M); format: in vivo, velvetleaf (Abutilon theophrasti); settings: amount of applied herbicide 320 g/ha
# In short: as §2
# redroot pigweed [10] = test: Test Example 4: herbicidal effect by soil treatment (Table 19, symbol N); format: in vivo, redroot pigweed (Amaranthus retroflexus); settings: amount of applied herbicide 320 g/ha
# In short: as §2
# lambsquarters [11] = test: Test Example 4: herbicidal effect by soil treatment (Table 19, symbol O); format: in vivo, lambsquarters (Chenopodium album); settings: amount of applied herbicide 320 g/ha
# In short: as §2
# chickweed [12] = test: Test Example 4: herbicidal effect by soil treatment (Table 19, symbol P); format: in vivo, common chickweed (Stellaria media); settings: amount of applied herbicide 320 g/ha
# In short: as §2
# persian speedwell [13] = test: Test Example 4: herbicidal effect by soil treatment (Table 19, symbol R); format: in vivo, Persian speedwell (Veronica persica); settings: amount of applied herbicide 320 g/ha
# In short: as §2
# southern crabgrass [14] = test: Test Example 5: herbicidal effect by foliage application, plastic box (Table 20, symbol F); format: in vivo, southern crabgrass (Digitaria ciliaris); settings: amount of applied herbicide 320 g/ha; foliage application after 14-day growth; evaluated three weeks after application
# In short: (§3)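 Post-emergence foliar test in sterilized diluvial soil. Compound applied as water-diluted emulsion at a predetermined rate to 14-day-old plants; evaluation at three weeks.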
# green foxtail [15] = test: Test Example 5: herbicidal effect by foliage application, plastic box (Table 20, symbol G); format: in vivo, green foxtail (Setaria viridis); settings: amount of applied herbicide 320 g/ha; foliage application after 14-day growth; evaluated three weeks after application
# In short: as §3
# barnyard grass [16] = test: Test Example 5: herbicidal effect by foliage application, plastic box (Table 20, symbol H); format: in vivo, barnyard grass (Echinochloa crus-galli); settings: amount of applied herbicide 320 g/ha; foliage application after 14-day growth; evaluated three weeks after application
# In short: as §3
# wild oat [17] = test: Test Example 5: herbicidal effect by foliage application, plastic box (Table 20, symbol I); format: in vivo, wild oat (Avena fatua); settings: amount of applied herbicide 320 g/ha; foliage application after 14-day growth; evaluated three weeks after application
# In short: as §3
# blackgrass [18] = test: Test Example 5: herbicidal effect by foliage application, plastic box (Table 20, symbol J); format: in vivo, blackgrass (Alopecurus myosuroides); settings: amount of applied herbicide 320 g/ha; foliage application after 14-day growth; evaluated three weeks after application
# In short: as §3
# Italian ryegrass [19] = test: Test Example 5: herbicidal effect by foliage application, plastic box (Table 20, symbol K); format: in vivo, Italian ryegrass (Lolium multiflorum); settings: amount of applied herbicide 320 g/ha; foliage application after 14-day growth; evaluated three weeks after application
# In short: as §3
# windgrass [20] = test: Test Example 5: herbicidal effect by foliage application, plastic box (Table 20, symbol L); format: in vivo, windgrass (Apera spica-venti); settings: amount of applied herbicide 320 g/ha; foliage application after 14-day growth; evaluated three weeks after application
# In short: as §3
# velvetleaf [21] = test: Test Example 5: herbicidal effect by foliage application, plastic box (Table 20, symbol M); format: in vivo, velvetleaf (Abutilon theophrasti); settings: amount of applied herbicide 320 g/ha; foliage application after 14-day growth; evaluated three weeks after application
# In short: as §3
# redroot pigweed [22] = test: Test Example 5: herbicidal effect by foliage application, plastic box (Table 20, symbol N); format: in vivo, redroot pigweed (Amaranthus retroflexus); settings: amount of applied herbicide 320 g/ha; foliage application after 14-day growth; evaluated three weeks after application
# In short: as §3
# lambsquarters [23] = test: Test Example 5: herbicidal effect by foliage application, plastic box (Table 20, symbol O); format: in vivo, lambsquarters (Chenopodium album); settings: amount of applied herbicide 320 g/ha; foliage application after 14-day growth; evaluated three weeks after application
# In short: as §3
# chickweed [24] = test: Test Example 5: herbicidal effect by foliage application, plastic box (Table 20, symbol P); format: in vivo, common chickweed (Stellaria media); settings: amount of applied herbicide 320 g/ha; foliage application after 14-day growth; evaluated three weeks after application
# In short: as §3
# persian speedwell [25] = test: Test Example 5: herbicidal effect by foliage application, plastic box (Table 20, symbol R); format: in vivo, Persian speedwell (Veronica persica); settings: amount of applied herbicide 320 g/ha; foliage application after 14-day growth; evaluated three weeks after application
# In short: as §3
structure (smiles),measurement,setting,value
Cc1nn(C)c(=O)c(-c2c(-c3ccc4c(c3)OCO4)sc3cc(F)c(F)cc23)c1O [5-035],herbicidal effect on barnyard grass (H),barnyard grass [1],4 (Herbicidal rate of 70% or more and less than 90%)
same,herbicidal effect on Chinese sprangletop (D),Chinese sprangletop,3 (Herbicidal rate of 40% or more and less than 70%)
same,herbicidal effect on rice flat sedge (E),rice flat sedge,3 (Herbicidal rate of 40% or more and less than 70%)
same,"F: southern crabgrass, herbicidal effect grade",southern crabgrass [2],1 (Herbicidal rate of 5% or more and less than 20%)
same,"G: green foxtail, herbicidal effect grade",green foxtail [3],2 (Herbicidal rate of 20% or more and less than 40%)
same,"H: barnyard grass, herbicidal effect grade",barnyard grass [4],3 (Herbicidal rate of 40% or more and less than 70%)
same,"I: wild oat, herbicidal effect grade",wild oat [5],0 (Herbicidal rate of 5% or less (almost no effect))
same,"J: blackgrass, herbicidal effect grade",blackgrass [6],0 (Herbicidal rate of 5% or less (almost no effect))
same,"K: Italian ryegrass, herbicidal effect grade",Italian ryegrass [7],0 (Herbicidal rate of 5% or less (almost no effect))
same,"L: windgrass, herbicidal effect grade",windgrass [8],0 (Herbicidal rate of 5% or less (almost no effect))
same,"M: velvetleaf, herbicidal effect grade",velvetleaf [9],0 (Herbicidal rate of 5% or less (almost no effect))
same,"N: redroot pigweed, herbicidal effect grade",redroot pigweed [10],1 (Herbicidal rate of 5% or more and less than 20%)
same,"O: lambsquarters, herbicidal effect grade",lambsquarters [11],3 (Herbicidal rate of 40% or more and less than 70%)
same,"P: chickweed, herbicidal effect grade",chickweed [12],1 (Herbicidal rate of 5% or more and less than 20%)
same,"R: persian speedwell, herbicidal effect grade",persian speedwell [13],5 (Herbicidal rate of 90% or more (almost completely withered))
same,"Herbicidal effect by foliage application, F: southern crabgrass",southern crabgrass [14],1 (Herbicidal rate of 5% or more and less than 20%)
same,"Herbicidal effect by foliage application, G: green foxtail",green foxtail [15],0 (Herbicidal rate of 5% or less (almost no effect))
same,"Herbicidal effect by foliage application, H: barnyard grass",barnyard grass [16],2 (Herbicidal rate of 20% or more and less than 40%)
same,"Herbicidal effect by foliage application, I: wild oat",wild oat [17],0 (Herbicidal rate of 5% or less (almost no effect))
same,"Herbicidal effect by foliage application, J: blackgrass",blackgrass [18],0 (Herbicidal rate of 5% or less (almost no effect))
same,"Herbicidal effect by foliage application, K: Italian ryegrass",Italian ryegrass [19],0 (Herbicidal rate of 5% or less (almost no effect))
same,"Herbicidal effect by foliage application, L: windgrass",windgrass [20],5 (Herbicidal rate of 90% or more (almost completely withered))
same,"Herbicidal effect by foliage application, M: velvetleaf",velvetleaf [21],5 (Herbicidal rate of 90% or more (almost completely withered))
same,"Herbicidal effect by foliage application, N: redroot pigweed",redroot pigweed [22],5 (Herbicidal rate of 90% or more (almost completely withered))
same,"Herbicidal effect by foliage application, O: lambsquarters",lambsquarters [23],5 (Herbicidal rate of 90% or more (almost completely withered))
same,"Herbicidal effect by foliage application, P: chickweed",chickweed [24],5 (Herbicidal rate of 90% or more (almost completely withered))
same,"Herbicidal effect by foliage application, R: persian speedwell",persian speedwell [25],5 (Herbicidal rate of 90% or more (almost completely withered))
